Results published in PubChem BioAssay AID2060890 (Molecular Pharmacology Branch, DTP, NCI, 2025).

Tested on: LG0703-F948-PDC complex spheroid viability
Assay: Anticancer human tumor LG0703-F948-PDC patient-derived lung adenocarcinoma cell line growth inhibition [RAS]
Settings: for viability, T/C: stronger effect = lower value; active means viability on the fitted dose curve at most 10% of control; inactive means the rest
How it was run: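 Agents were tested in combination matrices in half-log decrements from a top concentration at or near clinical Cmax (10 microM if undetermined). Targets were multi-cell spheroids of tumour lines plus HUVEC and MSC stromal cells.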

[1] = curve of first compound, second compound 0.0316 µM
[2] = curve of first compound, second compound 0.1 µM
[3] = curve of first compound, second compound 0.316 µM
[4] = curve of first compound, second compound 1 µM
[5] = curve of first compound, second compound 3.16 µM
[6] = curve of first compound, second compound 10 µM
[7] = second compound 0.0316 µM, first compound 0.0316 µM
[8] = second compound 0.0316 µM, first compound 0.1 µM
[9] = second compound 0.0316 µM, first compound 0.316 µM
[10] = second compound 0.0316 µM, first compound 1 µM
[11] = second compound 0.1 µM, first compound 0.0316 µM
[12] = second compound 0.1 µM, first compound 0.1 µM
[13] = second compound 0.1 µM, first compound 0.316 µM
[14] = second compound 0.1 µM, first compound 1 µM
[15] = second compound 0.316 µM, first compound 0.0316 µM
[16] = second compound 0.316 µM, first compound 0.1 µM
[17] = second compound 0.316 µM, first compound 0.316 µM
[18] = second compound 0.316 µM, first compound 1 µM
[19] = second compound 1 µM, first compound 0.0316 µM
[20] = second compound 1 µM, first compound 0.1 µM
[21] = second compound 1 µM, first compound 0.316 µM
[22] = second compound 1 µM, first compound 1 µM
[23] = second compound 3.16 µM, first compound 0.0316 µM
[24] = second compound 3.16 µM, first compound 0.1 µM
[25] = second compound 3.16 µM, first compound 0.316 µM
[26] = second compound 3.16 µM, first compound 1 µM
[27] = second compound 10 µM, first compound 0.0316 µM
[28] = second compound 10 µM, first compound 0.1 µM
[29] = second compound 10 µM, first compound 0.316 µM
[30] = second compound 10 µM, first compound 1 µM
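Further: spheroids exposed to agents for 7 days.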
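Wherever viability, T/C is given: 100% = DMSO vehicle wells.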

Cc1nc(N2CCC3(CC2)COC(C)C3N)c(CO)nc1Sc1ccnc(N)c1Cl (stereo not drawn) + C#Cc1c(F)ccc2cc(O)cc(-c3ncc4c(N5CC6CCC(C5)N6)nc(OCC56CCCN5CC(F)C6)nc4c3F)c12
active: viability, T/C (second compound 0.1 µM, first compound 10 µM) 4.95% | viability, T/C (second compound 0.316 µM, first compound 10 µM) 6.94% | viability, T/C (second compound 1 µM, first compound 10 µM) 7.42% | viability, T/C (second compound 3.16 µM, first compound 3.16 µM) 9.6% | viability, T/C (second compound 3.16 µM, first compound 10 µM) 5.81% | viability, T/C (second compound 10 µM, first compound 3.16 µM) 6.12% | viability, T/C (second compound 10 µM, first compound 10 µM) 2.83%
< 0.0316 µM: IC50 [6]
0.37 µM: IC50 [1]
0.287 µM: IC50 [2]
inactive: viability, T/C [7] 76.2% | viability, T/C [8] 73.7% | viability, T/C [9] 47.9% | viability, T/C [10] 35.5% | viability, T/C (second compound 0.0316 µM, first compound 3.16 µM) 20.1% | viability, T/C (second compound 0.0316 µM, first compound 10 µM) 10.7% | viability, T/C [11] 83.4% | viability, T/C [12] 63% | viability, T/C [13] 47.4% | viability, T/C [14] 35.9% | viability, T/C (second compound 0.1 µM, first compound 3.16 µM) 17.6% | viability, T/C [15] 68.1% | viability, T/C [16] 60.1% | viability, T/C [17] 40.3% | viability, T/C [18] 26.4% | viability, T/C (second compound 0.316 µM, first compound 3.16 µM) 14.4% | viability, T/C [19] 52.4% | viability, T/C [20] 51.7% | viability, T/C [21] 35.8% | viability, T/C [22] 19.9% | viability, T/C (second compound 1 µM, first compound 3.16 µM) 15.5% | viability, T/C [23] 50.3% | viability, T/C [24] 41.5% | viability, T/C [25] 28.5% | viability, T/C [26] 15% | viability, T/C [27] 28.7% | viability, T/C [28] 29.3% | viability, T/C [29] 20.1% | viability, T/C [30] 10.6%
0.181 µM: IC50 [3]
0.0858 µM: IC50 [4]
0.0327 µM: IC50 [5]

Nc1ccn(C2OC(CO)C(O)C2(F)F)c(=O)n1 (stereo not drawn) + C#Cc1c(F)ccc2cc(O)cc(-c3ncc4c(N5CC6CCC(C5)N6)nc(OCC56CCCN5CC(F)C6)nc4c3F)c12
< 0.00316 µM: IC50 [6]
0.00501 µM: IC50 [4]
0.00385 µM: IC50 [5]
0.00633 µM: IC50 [1]
inactive: viability, T/C (second compound 0.0316 µM, first compound 0.00316 µM) 68.2% | viability, T/C (second compound 0.0316 µM, first compound 0.01 µM) 37.7% | viability, T/C [7] 30.6% | viability, T/C [8] 34.1% | viability, T/C [9] 25.7% | viability, T/C [10] 28.3% | viability, T/C (second compound 0.1 µM, first compound 0.00316 µM) 74.2% | viability, T/C (second compound 0.1 µM, first compound 0.01 µM) 45% | viability, T/C [11] 26.9% | viability, T/C [12] 27.4% | viability, T/C [13] 31.9% | viability, T/C [14] 27% | viability, T/C (second compound 0.316 µM, first compound 0.00316 µM) 63.7% | viability, T/C (second compound 0.316 µM, first compound 0.01 µM) 40.8% | viability, T/C [15] 31.6% | viability, T/C [16] 29% | viability, T/C [17] 26.6% | viability, T/C [18] 23.5% | viability, T/C (second compound 1 µM, first compound 0.00316 µM) 59% | viability, T/C (second compound 1 µM, first compound 0.01 µM) 35.4% | viability, T/C [19] 32.7% | viability, T/C [20] 23.8% | viability, T/C [21] 26.4% | viability, T/C [22] 25.6% | viability, T/C (second compound 3.16 µM, first compound 0.00316 µM) 53% | viability, T/C (second compound 3.16 µM, first compound 0.01 µM) 34.7% | viability, T/C [23] 34.2% | viability, T/C [24] 30.9% | viability, T/C [25] 32% | viability, T/C [26] 26.9% | viability, T/C (second compound 10 µM, first compound 0.00316 µM) 41.5% | viability, T/C (second compound 10 µM, first compound 0.01 µM) 29% | viability, T/C [27] 32.5% | viability, T/C [28] 33.5% | viability, T/C [29] 34% | viability, T/C [30] 30.7%
0.00821 µM: IC50 [2]
0.00643 µM: IC50 [3]

C=CC(=O)Nc1cc(Nc2nccc(-c3cn(C)c4ccccc34)n2)c(OC)cc1N(C)CCN(C)C + CCn1c(-c2cccnc2C(C)OC)c2c3cc(ccc31)N1CCOC(CC(NC(=O)C(C(C)C)N(C)C(=O)C3(F)CCN(C(=O)C#CC(C)(C)N(C)C)CC3)C(=O)N3CCCC(N3)C(=O)OCC(C)(C)C2)C1
0.0139 µM: IC50 (curve of first compound, second compound 0.003 µM)
< 0.00316 µM: IC50 (curve of first compound, second compound 0.3 µM)
0.00992 µM: IC50 (curve of first compound, second compound 0.03 µM)
0.0131 µM: IC50 (curve of first compound, second compound 0.000949 µM)
0.0121 µM: IC50 (curve of first compound, second compound 0.00949 µM)
0.00489 µM: IC50 (curve of first compound, second compound 0.0949 µM)
inactive: viability, T/C (second compound 0.000949 µM, first compound 0.00316 µM) 78.5% | viability, T/C (second compound 0.000949 µM, first compound 0.01 µM) 56.9% | viability, T/C (second compound 0.000949 µM, first compound 0.0316 µM) 27.3% | viability, T/C (second compound 0.000949 µM, first compound 0.1 µM) 20.5% | viability, T/C (second compound 0.000949 µM, first compound 0.316 µM) 19.1% | viability, T/C (second compound 0.000949 µM, first compound 1 µM) 13.9% | viability, T/C (second compound 0.003 µM, first compound 0.00316 µM) 88.6% | viability, T/C (second compound 0.003 µM, first compound 0.01 µM) 57.5% | viability, T/C (second compound 0.003 µM, first compound 0.0316 µM) 31.1% | viability, T/C (second compound 0.003 µM, first compound 0.1 µM) 21.5% | viability, T/C (second compound 0.003 µM, first compound 0.316 µM) 16.2% | viability, T/C (second compound 0.003 µM, first compound 1 µM) 15.6% | viability, T/C (second compound 0.00949 µM, first compound 0.00316 µM) 83.4% | viability, T/C (second compound 0.00949 µM, first compound 0.01 µM) 55.6% | viability, T/C (second compound 0.00949 µM, first compound 0.0316 µM) 22.3% | viability, T/C (second compound 0.00949 µM, first compound 0.1 µM) 18.5% | viability, T/C (second compound 0.00949 µM, first compound 0.316 µM) 19.7% | viability, T/C (second compound 0.00949 µM, first compound 1 µM) 15.2% | viability, T/C (second compound 0.03 µM, first compound 0.00316 µM) 82.6% | viability, T/C (second compound 0.03 µM, first compound 0.01 µM) 49.6% | viability, T/C (second compound 0.03 µM, first compound 0.0316 µM) 26.6% | viability, T/C (second compound 0.03 µM, first compound 0.1 µM) 15.5% | viability, T/C (second compound 0.03 µM, first compound 0.316 µM) 17.4% | viability, T/C (second compound 0.03 µM, first compound 1 µM) 14.4% | viability, T/C (second compound 0.0949 µM, first compound 0.00316 µM) 60.2% | viability, T/C (second compound 0.0949 µM, first compound 0.01 µM) 33.1% | viability, T/C (second compound 0.0949 µM, first compound 0.0316 µM) 21.2% | viability, T/C (second compound 0.0949 µM, first compound 0.1 µM) 14.9% | viability, T/C (second compound 0.0949 µM, first compound 0.316 µM) 13.9% | viability, T/C (second compound 0.0949 µM, first compound 1 µM) 12.1% | viability, T/C (second compound 0.3 µM, first compound 0.00316 µM) 29.1% | viability, T/C (second compound 0.3 µM, first compound 0.01 µM) 17.5% | viability, T/C (second compound 0.3 µM, first compound 0.0316 µM) 9.89% | viability, T/C (second compound 0.3 µM, first compound 0.1 µM) 9.16% | viability, T/C (second compound 0.3 µM, first compound 0.316 µM) 9.3% | viability, T/C (second compound 0.3 µM, first compound 1 µM) 13.5%

C=CC(=O)Nc1cc(Nc2nccc(-c3cn(C)c4ccccc34)n2)c(OC)cc1N(C)CCN(C)C
16.2% [middle of 4 runs]: viability, T/C (compound 0.1 µM)
12.8% [middle of 4 runs]: viability, T/C (compound 1 µM)
17.2% [middle of 4 runs]: viability, T/C (compound 0.316 µM)
inactive: viability, T/C (compound 0.00316 µM) 90.6% [middle of 4 runs] | viability, T/C (compound 0.01 µM) 50.2% [middle of 4 runs] | viability, T/C (compound 0.0316 µM) 21.9% [middle of 4 runs]
10.1 nM [middle of 4 runs]: IC50 (curve of compound)
